Measured values as given in ChEMBL document CHEMBL4020729, “Synthesis and evaluation of anti-plasmodial and cytotoxic activities of epoxyazadiradione derivatives” (Eur J Med Chem, 2017).

What was measured:
Format in all cases: functional, cell-based
SiHa = test: Antiproliferative activity against human SiHa cells after 48 hrs by SRB assay
IMR-32 = test: Antiproliferative activity against human IMR32 cells after 48 hrs by SRB assay; conditions: IMR-32, 48 h
MDA-MB-231 = test: Antiproliferative activity against human MDA-MB-231 cells after 48 hrs by SRB assay; conditions: MDA-MB-231, 48 h
PANC-1 = test: Antiproliferative activity against human PANC1 cells after 48 hrs by SRB assay; conditions: PANC-1, 48 h
Plasmodium falciparum = test: Anti-plasmodial activity against chloroquine-sensitive Plasmodium falciparum 3D7 infected in human erythrocytes after 50 hrs by SYBR green dye based fluorescence assay; conditions: 3D7, 50 h

SMILES | IC50 (SiHa) | IC50 (IMR-32) | IC50 (MDA-MB-231) | IC50 (PANC-1) | IC50 (Plasmodium falciparum)
COc1ccc(C[C@@H](O)c2cc(OC)c(OC)c(OC)c2)cc1O [COMBRETASTATIN] | 2 µM | 2.4 µM | 2.3 µM | 3.5 µM | 
CC(=O)O[C@@H]1C[C@H]2C(C)(C)C(O)C=C[C@]2(C)[C@H]2CC[C@@]3(C)[C@H](c4ccoc4)C(O)[C@H]4O[C@]43[C@@]21C (some centres undefined) | > 100 µM | > 100 µM | > 100 µM | > 100 µM | 35.5 µM
CCC(=O)Nc1ccc(-n2cc(CO/N=C3/[C@H]4O[C@]45[C@@]4(C)[C@H](CC[C@@]5(C)[C@@H]3c3ccoc3)[C@@]3(C)C=CC(=O)C(C)(C)[C@@H]3C[C@H]4OC(C)=O)nn2)cc1 | > 100 µM | > 100 µM | > 100 µM | > 100 µM | 6.7 µM
CCC(=O)O/N=C1/[C@H]2O[C@]23[C@@]2(C)[C@H](CC[C@@]3(C)[C@@H]1c1ccoc1)[C@@]1(C)C=CC(=O)C(C)(C)[C@@H]1C[C@H]2OC(C)=O | > 100 µM | > 100 µM | > 100 µM | > 100 µM | 9.3 µM
CCC(=O)O[C@@H]1C[C@H]2C(C)(C)C(=O)C=C[C@]2(C)[C@H]2CC[C@@]3(C)[C@H](c4ccoc4)C(=O)[C@H]4O[C@]43[C@@]21C |  |  |  |  | 7.1 µM
CC(=O)O[C@@H]1C[C@H]2C(C)(C)C(=O)C=C[C@]2(C)[C@H]2CC[C@@]3(C)[C@H](c4ccoc4)/C(=N\OC(=O)c4ccccc4Br)[C@H]4O[C@]43[C@@]21C | > 100 µM | > 100 µM | > 100 µM | > 100 µM | 12.2 µM
CC1(C)C(=O)C=C[C@]2(C)[C@H]3CC[C@@]4(C)[C@H](c5ccoc5)/C(=N\O)[C@H]5O[C@]54[C@]3(C)[C@H](O)C[C@@H]12 | > 100 µM | > 100 µM | > 100 µM | > 100 µM | 20 µM
CC(=O)O[C@@H]1C[C@H]2C(C)(C)C(=O)C(O)C(O)[C@]2(C)[C@H]2CC[C@@]3(C)[C@H](c4ccoc4)C(=O)[C@H]4O[C@]43[C@@]21C (some centres undefined) | > 100 µM | > 100 µM | 29.9 µM | > 100 µM | 52.5 µM
CC(=O)O[C@@H]1C[C@H]2C(C)(C)C(=O)C=C[C@]2(C)[C@H]2CC[C@@]3(C)[C@H](c4ccoc4)/C(=N\OCc4cn(-c5ccc(Cl)cc5)nn4)[C@H]4O[C@]43[C@@]21C | > 100 µM | > 100 µM | 21.3 µM | > 100 µM | 2.9 µM
COc1ccc(OC)c(/C=C/C(=O)O[C@@H]2C[C@H]3C(C)(C)C(=O)C=C[C@]3(C)[C@H]3CC[C@@]4(C)[C@H](c5ccoc5)C(=O)[C@H]5O[C@]54[C@@]32C)c1 | > 100 µM | > 100 µM | > 100 µM | > 100 µM | 8.8 µM
C=CCCC(=O)O/N=C1/[C@H]2O[C@]23[C@@]2(C)[C@H](CC[C@@]3(C)[C@@H]1c1ccoc1)[C@@]1(C)C=CC(=O)C(C)(C)[C@@H]1C[C@H]2OC(C)=O | > 100 µM | > 100 µM | 55.8 µM | > 100 µM | 5.8 µM
CC(=O)O[C@@H]1C[C@H]2C(C)(C)C(=O)C=C[C@]2(C)[C@H]2CC[C@@]3(C)[C@H](c4ccoc4)/C(=N\OC(=O)c4cccc([N+](=O)[O-])c4)[C@H]4O[C@]43[C@@]21C | > 100 µM | > 100 µM | > 100 µM | > 100 µM | 28.6 µM
COc1cccc2c1C(=O)c1c(O)c3c(c(O)c1C2=O)C[C@@](O)(C(=O)CO)C[C@@H]3O[C@H]1C[C@H](N)[C@H](O)[C@H](C)O1 [DOXORUBICIN] | 1.9 µM | 3.2 µM | 1.8 µM | 3.2 µM | 
